Source: patent US20080213415A1, “Treatment of Glaucoma and Diabetic Retinopathy with Morinda Citrifolia Enhanced Formulations” (priority 2007, published 2008)
Like-named read-outs stand apart in the source and are kept apart here.

Assays:
[1] = target: T1, Fatty acid amide hydrolase (FAAH) (Rattus norvegicus, UniProt P97612); assay: Fatty acid amide hydrolase (FAAH) inhibition, quantitation of labelled ethanolamine; assay type: biochemical, Wistar Rat; settings: reference compound, concurrent
T1 sequence (P97612 1-579): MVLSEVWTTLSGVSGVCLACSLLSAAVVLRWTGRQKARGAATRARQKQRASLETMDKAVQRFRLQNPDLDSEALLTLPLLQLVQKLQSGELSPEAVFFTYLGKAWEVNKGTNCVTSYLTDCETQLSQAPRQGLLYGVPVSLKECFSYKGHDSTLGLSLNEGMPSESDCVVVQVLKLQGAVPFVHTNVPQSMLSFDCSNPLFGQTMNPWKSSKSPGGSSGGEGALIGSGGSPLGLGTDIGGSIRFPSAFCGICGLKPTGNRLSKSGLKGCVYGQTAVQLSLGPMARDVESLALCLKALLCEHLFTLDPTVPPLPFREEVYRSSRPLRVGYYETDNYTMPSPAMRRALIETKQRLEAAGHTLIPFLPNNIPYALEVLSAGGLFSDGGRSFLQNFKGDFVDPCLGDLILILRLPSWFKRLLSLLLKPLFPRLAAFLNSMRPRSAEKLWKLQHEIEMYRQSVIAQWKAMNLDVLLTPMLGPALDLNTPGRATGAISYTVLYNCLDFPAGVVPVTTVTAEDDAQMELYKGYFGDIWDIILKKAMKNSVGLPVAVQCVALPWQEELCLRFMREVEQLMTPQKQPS

[2] = target: T1, Fatty acid amide hydrolase (FAAH); settings: reference compound, historical value; cited from earlier work

CCCCCCCC/C=C\CCCCCCCC(=O)C(F)(F)F [Oleyl Trifluormethyl Ketone]
IC50 ([1]; batch 144029): 23.5 nM | IC50 ([1]; batch 144988): 35.5 nM | IC50 [2]: 29 nM
